Measured values taken from ChEMBL document CHEMBL3714725, “Diaminopyrimidines as P2X3 and P2X2/3 modulators” (2010).
Calls of active or inactive are those of the source. No rule for the calls is given here.

Tested on: Rattus norvegicus
Assay: Cmax in Crl:WI(GLx/BRL/Han)IGS BR(Hanover-Wistar) rat assessed as (5-(5-Iodo-2-isopropyl-4-methoxy-phenoxy)-pyrimidine-2,4-diamine) level at 0.127 mmol, po after 0.5 to 24 hrs by HPLC method
Type: ADME, organism-based
Design: dose 0.127 mmol, route oral
Conditions: in vivo

Row | Cmax [ng/mL] | Structure (SMILES)
1 | 61.9 | COc1cc(C(C)C)c(Oc2cnc(NC(=O)C(C)C)nc2N)cc1I

Tested on: Rattus norvegicus
Assay: AUC in Crl:WI(GLx/BRL/Han)IGS BR(Hanover-Wistar) rat assessed as (5-(5-Iodo-2-isopropyl-4-methoxy-phenoxy)-pyrimidine-2,4-diamine) level at 0.127 mmol, po after 0.5 to 24 hrs by HPLC method
Type: ADME, organism-based
Design: time upper 24 hr, time lower 0.5 hr, dose 0.127 mmol, route oral
Conditions: in vivo

Row | AUC [ng·h/mL] | Structure (SMILES)
2 | 200 | COc1cc(C(C)C)c(Oc2cnc(NC(=O)C(C)C)nc2N)cc1I

Target: T1, P2X purinoceptor 3 (Rattus norvegicus) (UniProt P49654)
T1 sequence (whole entry): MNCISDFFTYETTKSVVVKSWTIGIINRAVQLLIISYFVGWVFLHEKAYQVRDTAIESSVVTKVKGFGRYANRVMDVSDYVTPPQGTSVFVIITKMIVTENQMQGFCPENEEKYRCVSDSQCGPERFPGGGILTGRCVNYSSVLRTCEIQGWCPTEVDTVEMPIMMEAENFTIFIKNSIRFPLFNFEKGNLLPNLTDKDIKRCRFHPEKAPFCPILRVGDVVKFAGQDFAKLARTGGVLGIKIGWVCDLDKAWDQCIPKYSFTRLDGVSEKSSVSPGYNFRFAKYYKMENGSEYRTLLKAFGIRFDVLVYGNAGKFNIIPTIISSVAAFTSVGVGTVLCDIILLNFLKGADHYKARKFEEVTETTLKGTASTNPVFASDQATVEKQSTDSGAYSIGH
Assay: Antagonist activity against rat P2X3 receptor expressed in CHOK1 cells assessed as inhibition of alpha,beta-meATP-induced calcium response incubated for 20 mins by Fluo-3AM dye based FLIPR assay
Type: functional, cell-based
Conditions: CHO-K1

Row | Structure (SMILES) | inhibition
3 | CCC(C)C(=O)Nc1ncc(Oc2cc(I)c(OC)cc2C(C)C)c(N)n1 (centres undefined) | Active
4 | C#Cc1cc(Oc2cnc(N)nc2NC(=O)CCC)c(C(C)C)cc1OC | Active
5 | COc1cc(C(C)C)c(Oc2cnc(NC(=O)N3CCN(C)CC3)nc2N)cc1I | Active
6 | COc1cc(C(C)C)c(Oc2cnc(N)nc2NC(=O)c2cccn2C)cc1I | Active
7 | COc1cc(C(C)C)c(Oc2cnc(NC(=O)C(C)(C)O)nc2N)cc1I | Active
8 | COc1cc(C(C)C)c(Oc2cnc(NC(=O)COC(C)=O)nc2N)cc1I | Active
9 | CCOC(=O)Nc1ncc(Oc2cc(I)c(OC)cc2C(C)C)c(N)n1 | Active
10 | COc1cc(C(C)C)c(Oc2cnc(NC(=O)C(C)(C)C)nc2N)cc1I | Active
11 | COc1cc(C(C)C)c(Oc2cnc(NC(C)=O)nc2NC(C)=O)cc1I | Active
12 | CCC(C)(C)C(=O)Nc1ncc(Oc2cc(I)c(OC)cc2C(C)C)c(N)n1 | Active
13 | COc1cc(C(C)C)c(Oc2cnc(NC(=O)[C@@H]3CCCN3)nc2N)cc1I | Active
14 | COc1cc(C(C)C)c(Oc2cnc(NC(=O)C(C)C)nc2NC(=O)C(C)C)cc1I | Active
15 | C#Cc1cc(Oc2cnc(N)nc2NC(=O)c2cccn2C)c(C(C)C)cc1OC | Active
16 | C#Cc1cc(Oc2cnc(N)nc2NC(=O)CC(C)(C)C)c(C(C)C)cc1OC | Active
17 | COc1cc(C(C)C)c(Oc2cnc(NC(=O)COC(C)=O)nc2NC(=O)COC(C)=O)cc1I | Active
18 | C#Cc1cc(Oc2cnc(NC(=O)c3ccccc3)nc2N)c(C(C)C)cc1OC | Active

Row | Structure (SMILES) | inhibition
19 | COCCOCC(=O)Nc1ncc(Oc2cc(I)c(OC)cc2C(C)C)c(N)n1 | Active
20 | COc1cc(C(C)C)c(Oc2cnc(NC(=O)C3CCCN3C(C)=O)nc2N)cc1I (centres undefined) | Active
21 | COc1cc(C(C)C)c(Oc2cnc(NC(=O)N3CCOCC3)nc2NC(=O)N2CCOCC2)cc1I | Active
22 | CCCC(=O)Nc1ncc(Oc2cc(I)c(OC)cc2C(C)C)c(N)n1 | Active
23 | C#Cc1cc(Oc2cnc(N)nc2NC(=O)c2ccccc2)c(C(C)C)cc1OC | Active
24 | COc1cc(C(C)C)c(Oc2cnc(N)nc2NC(=O)C2CCOCC2)cc1I | Active
25 | COc1cc(C(C)C)c(Oc2cnc(N)nc2NC(=O)C2CCN(C(C)=O)CC2)cc1I | Active
26 | COc1cc(C(C)C)c(Oc2cnc(NC(=O)C3CCN(C)CC3)nc2N)cc1I | Active
27 | CCCCC(=O)Nc1ncc(Oc2cc(I)c(OC)cc2C(C)C)c(NC(=O)CCCC)n1 | Active
28 | COc1cc(C(C)C)c(Oc2cnc(NC(=O)[C@@H]3CCCO3)nc2N)cc1I | Active
29 | COCCOCC(=O)Nc1nc(N)ncc1Oc1cc(I)c(OC)cc1C(C)C | Active
30 | COc1cc(C(C)C)c(Oc2cnc(NC(=O)c3ccncc3)nc2N)cc1I | Active
31 | COc1cc(C(C)C)c(Oc2cnc(NC(=O)C(N)C(C)C)nc2N)cc1I (centres undefined) | Active
32 | COc1cc(C(C)C)c(Oc2cnc(NC(=O)N3CCOCC3)nc2N)cc1I | Active
33 | COc1cc(C(C)C)c(Oc2cnc(N)nc2NC(=O)c2cnc(C)cn2)cc1I | Active
34 | COc1cc(C(C)C)c(Oc2cnc(N)nc2NC(=O)c2ccccc2)cc1I | Active

Other lines, results leading:

Row | inhibition | Structure (SMILES)
35 | Active | COc1cc(C(C)C)c(Oc2cnc(NC(=O)c3ccccn3)nc2N)cc1I
36 | Active | C#Cc1cc(Oc2cnc(NC(C)=O)nc2N)c(C(C)C)cc1OC
37 | Active | COc1cc(C(C)C)c(Oc2cnc(NC(=O)c3cccnc3)nc2N)cc1I
38 | Active | COc1cc(C(C)C)c(Oc2cnc(NC(=O)N3CCC(N(C)C)CC3)nc2N)cc1I
39 | Active | COc1cc(C(C)C)c(Oc2cnc(NC(=O)c3ccnnc3)nc2N)cc1I
40 | Active | CC[C@@H](C)[C@@H](N)C(=O)Nc1nc(N)ncc1Oc1cc(I)c(OC)cc1C(C)C
41 | Active | COc1cc(C(C)C)c(Oc2cnc(NC(=O)[C@H](N)[C@H](C)C(C)C)nc2N)cc1I
42 | Active | COc1cc(C(C)C)c(Oc2cnc(NC(C)=O)nc2N)cc1I
43 | Active | CC[C@@H](C)[C@@H](N)C(=O)Nc1ncc(Oc2cc(I)c(OC)cc2C(C)C)c(N)n1
44 | Active | CCCCC(=O)Nc1ncc(Oc2cc(I)c(OC)cc2C(C)C)c(N)n1
45 | Active | COc1cc(C(C)C)c(Oc2cnc(NC(=O)Cc3cccnc3)nc2N)cc1I
46 | Active | CCOC(=O)Nc1ncc(Oc2cc(I)c(OC)cc2C(C)C)c(NC(=O)OCC)n1
47 | Active | COc1cc(C(C)C)c(Oc2cnc(NC(=O)C3CCN(C(C)=O)CC3)nc2NC(=O)C2CCN(C(C)=O)CC2)cc1I
48 | Active | COc1cc(C(C)C)c(Oc2cnc(NC(=O)CCC(=O)O)nc2N)cc1I
49 | Active | COc1cc(C(C)C)c(Oc2cnc(NC(=O)N3CCCCC3)nc2N)cc1I
50 | Active | COc1cc(C(C)C)c(Oc2cnc(N)nc2NC(=O)c2cnccn2)cc1I
51 | Active | COc1cc(C(C)C)c(Oc2cnc(NC(=O)c3cnc[nH]3)nc2N)cc1I
52 | Active | COc1cc(C(C)C)c(Oc2cnc(NC(=O)c3cnccn3)nc2N)cc1I
53 | Active | COc1cc(C(C)C)c(Oc2cnc(NC(=O)CC(C)C)nc2N)cc1I
54 | Active | COc1cc(C(C)C)c(Oc2cnc(N)nc2NC(=O)c2cnc[nH]2)cc1I

Row | inhibition | Structure (SMILES)
55 | Active | COc1cc(C(C)C)c(Oc2cnc(N)nc2NC(=O)[C@@H]2CCCO2)cc1I
56 | Active | COc1cc(C(C)C)c(Oc2cnc(NC(=O)c3ccccc3)nc2N)cc1I
57 | Active | COc1cc(C(C)C)c(Oc2cnc(NC(=O)C(C)(C)OC(C)=O)nc2N)cc1I
58 | Active | COc1cc(C(C)C)c(Oc2cnc(N)nc2NC(=O)c2ccco2)cc1I
59 | Active | COc1cc(C(C)C)c(Oc2cnc(NC(=O)OCC(C)C)nc2N)cc1I
60 | Active | COc1cc(C(C)C)c(Oc2cnc(NC(=O)CC(C)C)nc2NC(=O)CC(C)C)cc1I
61 | Active | COc1cc(C(C)C)c(Oc2cnc(NC(=O)c3ccco3)nc2N)cc1I
62 | Active | C#Cc1cc(Oc2cnc(NC(=O)CC(C)(C)C)nc2N)c(C(C)C)cc1OC
63 | Active | COCC(=O)Nc1ncc(Oc2cc(I)c(OC)cc2C(C)C)c(N)n1
64 | Active | COc1cc(C(C)C)c(Oc2cnc(N)nc2NC(=O)C(C)(C)C)cc1I
65 | Active | CCC(C)(C)C(=O)Nc1nc(N)ncc1Oc1cc(I)c(OC)cc1C(C)C
66 | Active | C#Cc1cc(Oc2cnc(NC(=O)C(C)(C)C)nc2NC(=O)C(C)(C)C)c(C(C)C)cc1OC
67 | Active | COc1cc(C(C)C)c(Oc2cnc(NC(=O)N3CCC(C)CC3)nc2N)cc1I
68 | Active | C#Cc1cc(Oc2cnc(NC(=O)CCC)nc2N)c(C(C)C)cc1OC
69 | Active | COc1cc(C(C)C)c(Oc2cnc(NC(=O)N3CCC(O)CC3)nc2N)cc1I
70 | Active | CCCC(=O)Nc1ncc(Oc2cc(I)c(OC)cc2C(C)C)c(NC(=O)CCC)n1
71 | Active | COc1cc(C(C)C)c(Oc2cnc(NC(=O)c3cnc(C)cn3)nc2N)cc1I
72 | Active | COc1cc(C(C)C)c(Oc2cnc(NC(=O)CO)nc2N)cc1I
73 | Active | COc1cc(C(C)C)c(Oc2cnc(N)nc2NC(=O)C2CCN(C)CC2)cc1I
74 | Active | COc1cc(C(C)C)c(Oc2cnc(N)nc2NC(=O)c2ccccn2)cc1I
